# Test results published in paper PMC6175062, “Gaining Mechanistic Insight Into Coproporphyrin I as Endogenous Biomarker for OATP1B‐Mediated Drug–Drug Interactions Using Population Pharmacokinetic Modeling and Simulation” (Clinical Pharmacology and Therapeutics, 2018).
# Where two headings read alike, the source gives them in different places.
# Legend:
# OATP1B [1] = assay: Rifampicin inhibition of CPI uptake in plated human hepatocytes; type: cell-based; settings: human, plated cryopreserved human hepatocytes, probe CPI (coproporphyrin I) 0.30 µM, CPI 0.30 µM
# Protocol: (§1) The in vitro IC50 for rifampicin was assessed using CPI and RSV as OATP probe substrates in plated human hepatocytes. Cryopreserved human hepatocytes (Donor QQE, BioreclamationIVT, Baltimore, MD) were thawed and plated at a density of 350,000 cells (1). After culturing for 4h, hepatocytes were washed twice with Dulbecco's phosphate-buffered saline and pre-incubated for an hour with either buffer or rifampicin (0.01-100µM). Following pre-incubation, the medium was replaced with CPI (0.30µM) or RSV (2µM) containing rifampicin (0-100µM). Incubations were stopped after 3 or 5 minutes (for RSV and CPI,respectively) using the washing protocol described previously (2). Monolayers were lysed with water and frozen overnight and then prepared for protein quantification (BCA assay) and LC-MS/MS analysis.
# (§2) Lysate concentrations were used to demine uptake rates over a series of free RIF concentrations measured in the medium and plotted as a % of the control to estimate RIF IC50 (Main article Figure 5A and Figure S1). RIF IC50 was determined using equation 1, where U denotes the uptake rate (% vs control) at the free inhibitor concentration in the incubation [I] (µM); R, the range of inhibition; B, the un-inhibitable background (%), and S, the slope factor (GraFit v6).
# [2] = test system: OATP1B-mediated CPI uptake in human hepatocytes; assay: as above; type: cell-based
# Protocol: as §1, §2
# OATP1B [3] = assay: Model-based rifampicin in vivo OATP Ki using CPI as probe; parameters: species or system human; settings: for Ki: human, plasma, oral, 600 mg, probe CPI (endogenous biomarker)
# Protocol: The plasma concentrations of the endogenous biomarker CPI were described using a turnover model (Equation 3).36 Simultaneous fitting of individual CPI plasma and urine data in the presence and absence of RIF was performed. In the final model, RIF inhibited biliary elimination (CL b,CPI) of CPI, whereas its renal clearance (CL R,CPI) and k syn were not affected. The rate of change of CPI plasma concentration under baseline and RIF condition is shown in Equations 3 and 4, respectively, whereas change in CPI amount in urine over time is shown in Equation 5. (3) dCCPI/dt=[ksyn−CLb,CPI⋅CCPI−CLR,CPI⋅CCPI]⋅1/VCPI (4) dCCPI/dt=[ksyn−CLb,CPI⋅CCPI/1+CRIF/KiCPI−CLR,CPI⋅CCPI]⋅1/VCPI (5) dUCPI/dt=CLR,CPI⋅CCPI where C CPI is its plasma concentration, U CPI is the CPI amount in urine, t is time, k syn is the zero‐order synthesis rate, Ki CPI is RIF transporter inhibition constant using CPI as a probe, V CPI is the volume of distribution of CPI and C RIF is RIF plasma concentration (linked to RIF model). Simulations were also performed to assess the consequences of the hypothetical inhibition of both CPI synthesis (k syn and biliary elimination (CL b,CPI) by inhibitor of interest (details in Supplementary Material).
# OATP [4] = assay: Model-based rifampicin in vivo OATP Ki using rosuvastatin as probe; parameters: species or system human; settings: total (not corrected for fu); RSV as probe; read-out: KiRSV, total Ki estimated by the model, population estimate (SE%)
# Excerpt: Based on the available plasma and urine data, a two compartment first order absorption and elimination model was used to describe the PK of RSV in the subjects. The model was parameterised using [picture] , volume of distribution of central ( [picture] ) and peripheral compartments ( [picture] ), inter-compartmental clearance ( [picture] ), biliary ( [picture] ) and renal ( [picture] ) clearance parameters. Analogous to CPI, inhibition of [picture] by RIF was incorporated in the rate of change of RSV plasma concentration, whereas it was assumed that RIF has no effect on RSV renal elimination (Eq 2). The rate of change of RSV amount in urine over time is shown in Eq3.
# where [picture] and [picture] are RSV concentrations in central (plasma) and peripheral compartments, [picture] is the amount in depot compartment, [picture] is RSV amount in the urine and [picture] is RIF transporter inhibition constant using RSV as a probe. Change in RSV distribution parameters ( [picture] , [picture] and [picture] ) following co-administration with RIF was also investigated as a binary covariate where two sets of parameters were estimated under the two experimental conditions; RSV alone and RSV under treatment (presence of RIF).
# [5] = test system: OATP-mediated rosuvastatin uptake in human hepatocytes; assay: Rifampicin inhibition of rosuvastatin uptake in plated human hepatocytes; type: cell-based; settings: RSV 2 µM; no pre-incubation effect, same donor
# Protocol: as §1, §2
# OATP1B3 = test system: OATP1B3; parameters: method as in earlier work; settings: ref (3, 4), cited from earlier work
# OATP1B1 [6] = settings: cited from earlier work
# [7] = parameters: method as in PMID 25813937; settings: in humans; cited from earlier work
# OATP2B1 = test system: OATP2B1; parameters: method as in PMID 24617605, PMID 20102298; settings: inconsistent data; read-out: IC50, OATP2B1 inhibition; cited from earlier work
# MRP2 = test system: MRP2; parameters: method as in PMID 28325716; settings: read-out: IC50, inhibition of MRP2 transport of CPI; cited from earlier work
# OATP1B1 [8] = assay: Literature rifampicin in vitro Ki/IC50 in transfected OATP1B1 cells; type: cell-based
# Excerpt: In addition, literature reported in vitro RIF inhibition data in OATP1B1-transfected cell lines using either CPI or other OATP1B1 probes (Table S5) were collated to understand further any potential differences between in vitro and in vivo estimated RIF inhibition parameters.
# OATP [9] = settings: inhibitor 600 mg, rosuvastatin 5 mg; ref (20); cited from earlier work
smiles,measurement,setting,value
CO[C@H]1/C=C/O[C@@]2(C)Oc3c(C)c(O)c4c(O)c(c(/C=N/N5CCN(C)CC5)c(O)c4c3C2=O)NC(=O)/C(C)=C\C=C\[C@H](C)[C@H](O)[C@@H](C)[C@@H](O)[C@@H](C)[C@H](OC(C)=O)[C@@H]1C [rifampicin],IC50 at 5 min,"OATP1B [1]; 60 min pre-incubation with buffer, read-out: IC50, CPI uptake, pre-incubation with buffer",730 nM
same,IC50 at 5 min,"OATP1B [1]; 60 min pre-incubation with inhibitor, donor QQE, read-out: IC50, CPI uptake, pre-incubation with RIF",300 nM
same,"IC50 with CPI in hepatocytes, fold lower than reported values in transfected OATP1B1 cells",[2],up to 10 fold
same,increase in potency of inhibition of CPI uptake by preincubation with RIF,[2],~2 fold
same,in vitro hepatocyte inhibition parameter (after preincubation) relative to in vivo Ki,[2]; in vitro higher than in vivo,4 fold
same,difference between unbound in vivo Ki from CPI and from RSV,OATP1B [3]; CPI-based Ki lower,2 fold
same,Ki,"OATP1B [3]; corrected for rifampicin fu plasma 0.11, read-out: in vivo unbound OATP Ki using CPI data",130 nM
same,Ki,"OATP1B [3]; total (not corrected for fu), CPI as probe, read-out: KiCPI, total Ki estimated by the model, population estimate (SE%)",1150 nM
same,Ki,OATP [4],2230 nM
same,IC50,[5],1000 nM
same,IC50,"OATP1B3; read-out: IC50, OATP1B3 transfected cells, CPI as substrate",250 to 1610 nM
same,IC50,"OATP1B3; read-out: IC50, OATP1B3 transfected cells, CPIII as substrate",270 to 1410 nM
same,IC50,"OATP1B1 [6]; substrate Atorvastatin 1 µM, HEK, rifampicin 0.1-630 µM, ref (11)",2200 nM
same,IC50,"OATP1B1 [6]; substrate BSP 0.01 µM, HEK, rifampicin 0.01-100 µM, ref (7)",2750 nM
same,IC50,"OATP1B1 [6]; substrate Coproporphyrin I 0.1 µM, CHO, rifampicin 0.1-100 µM, ref (3)",3250 nM
same,IC50,"OATP1B1 [6]; substrate Coproporphyrin I 0.2 µM, HEK, rifampicin 0.1-100 µM, ref (4)",660 nM
same,IC50,"OATP1B1 [6]; substrate Coproporphyrin III 0.1 µM, CHO, rifampicin 0.1-100 µM, ref (3)",4610 nM
same,IC50,"OATP1B1 [6]; substrate Coproporphyrin III 0.2 µM, HEK, rifampicin 0.1-100 µM, ref (4)",790 nM
same,IC50,"OATP1B1 [6]; substrate Fexofenadine 1 µM, HEK, rifampicin 0.01-100 µM, ref (10)",423 nM
same,IC50,"OATP1B1 [6]; substrate GCDCA-S 1 µM, HEK, rifampicin 0.1-30 µM, ref (5)",390 nM
same,IC50,"OATP1B1 [6]; substrate Nateglinide 1 µM, HEK, rifampicin 0.01-100 µM, ref (10)",358 nM
same,IC50,"OATP1B1 [6]; substrate Pitavastatin 0.1 µM, HEK, rifampicin 0.01-100 µM, ref (10)",1070 nM
same,IC50,"OATP1B1 [6]; substrate Pitavastatin 0.1 µM, MDCKII, rifampicin 0.1-100 µM, ref (8)",1600 nM
same,IC50,"OATP1B1 [6]; substrate Pravastatin 10 µM, HEK, rifampicin 0.01-100 µM, ref (10)",653 nM
same,IC50,"OATP1B1 [6]; substrate Rosuvastatin 0.1 µM, HEK, ref (9)",1100 nM
same,IC50,"OATP1B1 [6]; substrate Rosuvastatin 0.1 µM, MDCKII, rifampicin 0.1-100 µM, ref (8)",1100 nM
same,IC50,"OATP1B1 [6]; substrate Rosuvastatin 1 µM, HEK, rifampicin 0.01-100 µM, ref (10)",952 nM
same,IC50,"OATP1B1 [6]; substrate Valsartan 1 µM, HEK, rifampicin 0.01-100 µM, ref (10)",377 nM
same,IC50,"OATP1B1 [6]; substrate [3H]-E1S 0.01 µM, HEK, rifampicin 0.01-100 µM, ref (7)",6960 nM
same,IC50,"OATP1B1 [6]; substrate [3H]-E2G 0.1 µM, HEK, rifampicin 0.01-100 µM, ref (7)",585 nM
same,unbound liver-to-plasma concentration ratio,[7],3.3
same,IC50,OATP2B1,2100 to 81000 nM
same,IC50,MRP2,83000 nM
same,range in literature RIF IC50 (Table S5),OATP1B1 [8],30 fold
same,difference between in vivo Ki and literature in vitro data in OATP1B1-transfected cells,OATP1B1 [8]; depending on in vitro probe,up to 50 fold
same,Fold Change in AUC of rosuvastatin,OATP [9],4.7 fold
